Test results as given in patent US10611732B2, “HIV replication inhibiting pyrimidines” (Janssen Pharmaceutica NV, priority 2001, dated 2020).

Assays:
[1] = test system: HIV; experiment: microbe, parasite or virus in culture; conditions: for IC50: Human immunodeficiency virus 1, MT4, read-out: pIC50 (−log IC50), HIV-infected MT-4 cells (converted); for IC50 / pIC50 (−log IC50): dose achieving 50% protection, MTT, OD 540 nm; for pSI (pCC50-pIC50): selectivity index, ratio of CC50 to IC50, as log difference; for pIC50 (−log IC50): HIV-infected MT-4 cells
Protocol: (§1) A rapid, sensitive and automated assay procedure was used for the in vitro evaluation of anti-HIV agents. An […] T4-cell line, MT-4, which was previously shown (Koyanagi et al., Int. J Cancer, 36, 445-451, 1985) to be highly susceptible to and permissive for HIV infection, served as the target cell line. Inhibition of the HIV-induced cytopathic effect was used as the end point. The viability of both HIV- and mock-infected cells was assessed spectrophotometrically via the in situ reduction of 3-(4,5-dimethylthiazol-2-yl)-2,5-diphenyltetrazolium bromide (MTT). The 50% cytotoxic concentration (CC50 in M) was defined as the concentration of compound that reduced the absorbance of the mock-infected control sample by 50%. The percent protection achieved by the compound in HIV-infected cells was calculated by the following formula:
(§2) [formula] whereby (ODT)HIV is the optical density measured with a given concentration of the test compound in HIV-infected cells; (ODC)HIV is the optical density measured for the control untreated HIV-infected cells; (ODC)MOCK is the optical density measured for the control untreated mock-infected cells; all optical density values were determined at 540 nm. The dose achieving 50% protection according to the above formula was defined as the 50% inhibitory concentration (IC50 in M). The ratio of CC50 to IC50 was defined as the selectivity index (SI).
(§3) Table 6 lists the pIC50 (−log IC50), pCC50 (−log CC50) and pSI (pCC50-pIC50) values for the compounds of formula (I).

[2] = cytotoxicity in mock-infected MT-4 cells (MTT); conditions: human, mock-infected MT-4 cells
Protocol: as §1, §2, §3

[3] = test system: mock-infected MT-4 cells; experiment: cytotoxicity in mock-infected MT-4 cells (MTT)
Protocol: as §1, §2, §3

SMILES | melting point | IC50 [1] | pSI (pCC50-pIC50) [1] | CC50 [2] | pIC50 (−log IC50) [1] | pCC50 (−log CC50) [3]
CCCCN(C)C(=O)/C=C/c1cc(C)c(Oc2ccnc(Nc3ccc(C#N)cc3)n2)c(C)c1 | 212 °C |  |  |  |  | 
Cc1cc(/C=C(/C#N)C(=O)C(C)(C)C)cc(C)c1Nc1ccnc(Nc2ccc(C#N)cc2)n1 [Compound 106] | 193 °C | 20 nM | −2.5 |  |  | 
Cc1cc(/C=C/C(=O)N(C)CCC#N)cc(C)c1Nc1ccnc(Nc2ccc(C#N)cc2)n1 [Compound 114] | 168 °C | 2.51 nM | −3.5 |  |  | 
Cc1cc(C=C(Br)Br)cc(C)c1Nc1ccnc(Nc2ccc(C#N)cc2)n1 | 223 °C |  |  |  |  | 
Cc1cc(/C=C/c2cccnc2)cc(C)c1Nc1ccnc(Nc2ccc(C#N)cc2)n1 | 120 °C |  |  |  |  | 
Cc1cc(C(=O)CC#N)cc(C)c1Nc1ccnc(Nc2ccc(C#N)cc2)n1 | 150 °C |  |  |  |  | 
Cc1cc(/C=C(/F)C#N)cc(C)c1Oc1ccnc(Nc2ccc(C#N)cc2)n1 [Compound 110] | 254 °C | 2.51 nM | −4.3 | 50100 nM |  | 
CCOCc1ccc(Oc2ccnc(Nc3ccc(C#N)cc3)n2)c(C)c1 [Compound 105] | 140 °C | 63.1 nM | <−3.2 |  |  | 
Cc1cc(/C=C\Cl)cc(C)c1Nc1ccnc(Nc2ccc(C#N)cc2)n1 | 250 °C |  |  |  |  | 
Cc1cc(CCC#N)ccc1Oc1ccnc(Nc2ccc(C#N)cc2)n1 [Compound 234] |  |  | <−4.7 |  | 8.7 | <4.0 M
C/C(C#N)=C\c1cc(C)c(Oc2ccnc(Nc3ccc(C#N)cc3)n2)c(C)c1 [Compound 179] |  |  | <−4.9 |  | 8.9 | <4.0 M
Cc1ccc(N(C)C)c(C)c1Nc1ccnc(Nc2ccc(C#N)cc2)n1 | 132 °C |  |  |  |  | 
Cc1cc(/C=C/C(=O)N(C)C)cc(C)c1Nc1ccnc(Nc2ccc(C#N)cc2)n1 [Compound 112] | > 264 °C | 0.794 nM | −4.2 |  |  | 
Cc1cc(/C=C/C(=O)N(C)CCC#N)cc(C)c1Oc1ccnc(Nc2ccc(C#N)cc2)n1 [Compound 214] |  |  | −3.5 |  | 8.6 | 5.1 M
CC(=NO)c1cc(C)c(Nc2ccnc(Nc3ccc(C#N)cc3)n2)c(C)c1 [Compound 45] |  |  | −3.8 |  | 8.7 | 5.0 M
Cc1cc(-c2ccc(C#N)o2)cc(C)c1Nc1ccnc(Nc2ccc(C#N)cc2)n1 [Compound 126] | > 260 °C | 3.98 nM | −3.5 |  |  | 
COc1cc(/C=C/C#N)ccc1Nc1ccnc(Nc2ccc(C#N)cc2)n1 [Compound 245] |  |  | −4.8 |  | 8.8 | 4 M
CC(C#N)=Cc1ccc(Nc2ccnc(Nc3ccc(C#N)cc3)n2)c(C)c1 [Compound 229] |  |  | <−4.8 |  | 8.8 | <4.0 M
